Results: patent US20260130901A1, “CGRP RECEPTOR ANTAGONIST FOR THE TREATMENT OF MIGRAINE” (ALLERGAN PHARMACEUTICALS INTERNATIONAL LIMITED, priority 2022, published 2026)

How the values were obtained:
Type in all cases: in vivo, human
[1] = tested on: participants with migraine (qualifying prodrome events); test: Phase 3 crossover study: absence of aura at timepoints post dose; details: 100 mg in prodrome, mITT
Experimental: (§1) A phase 3, multicenter, randomized, double-blind, placebo-controlled, crossover study was carried out to evaluate the efficacy, safety, and tolerability of oral ubrogepant in the acute treatment of migraine when administered during the prodrome. The study evaluated whether treatment during the initial phase of a migraine attack (i.e., the prodrome or premonitory phase) prior to the onset of headache, can attenuate the severity of the headache phase and reduce disability.
(§2) Eligible participants were randomized (1:1) to treatment sequences A or B in this crossover study. Participants randomized to Treatment Sequence A received placebo to treat their first qualifying prodrome event and ubrogepant 100 mg to treat their second qualifying prodrome event. For those randomized to Treatment Sequence B, they received the reverse: ubrogepant 100 mg to treat their first qualifying prodrome event and placebo to treat their second qualifying prodrome event.
N1 is the number of patients with non-missing aura presence assessment at timepoint.

[2] = tested on: participants with migraine (qualifying prodrome events); test: Phase 3 crossover study: ability to function normally (Functional Disability Scale); details: 100 mg in prodrome, mITT
Experimental: as §1, §2
The primary efficacy endpoint was the absence of a headache of moderate/severe intensity within 24 hours after taking double-blind study intervention during the prodrome. The secondary efficacy endpoints were the absence of a headache of moderate or severe intensity within 48 hours, ability to function normally over 24 hours, and absence of a headache of any intensity within 24 hours after taking double blind study interventions during the prodrome.
A responder for ability to function normally is a participant having a score of 0 (no disability, able to function normally) on the Functional Disability Scale (FDS), and a non-responder is one having a score of 1 (Mildly impaired, can still do everything but with difficulty) to 3 (Severely impaired, cannot do all or most things, bed rest may be necessary).

[3] = tested on: participants with migraine (qualifying prodrome events); test: Phase 3 crossover study: activity limitation at 24 hours; details: 100 mg in prodrome, at 24 hours post-dose
Experimental: as §1, §2

[4] = tested on: participants with migraine (qualifying prodrome events); test: Phase 3 crossover study: safety and tolerability, adverse events (safety population)
Experimental: as §1, §2
Participant flow is illustrated in FIG. 2. The safety population included all treated participants who took at least one administration of study drug. The modified intent-to-treat (mITT) population included all randomized participants with at least one assessment of headache occurrence within 24 hours after taking double-blind study drug for at least one qualifying prodrome event. The most common reasons for failure to meet inclusion criteria were: lack of 3 to 16 recorded qualifying prodrome events during screening (144 of 317), failure to report headache of any intensity within 1 to 6 hours following at least 75% of qualifying prodrome events (123 of 317), and participant provided a negative response for the ability (by history) to identify migraine attacks in which prodromal symptoms were present and reliably (at least 75% of the time) followed by headache within 1 to 6 hours (23 of 317
Tables 20 and 21 provide an overall summary of adverse events during the double-blind treatment period for the safety population.
The most common TEAEs (≥2% in either treatment group) within 48 hours following administration of study intervention were nausea (placebo 15 of 462 [3.2%], ubrogepant 23 of 456 [5.0%]); dizziness (placebo 12 of 462 [2.6%], ubrogepant 11 of 456 [2.4%]), fatigue (placebo 7 of 462 [1.5%], ubrogepant 12 of 456 [2.6%]) and somnolence (placebo 5 of 462 [1.1%], ubrogepant 11 of 456 [2.4%]). Nausea (placebo 3.7%, ubrogepant 5.3%) was also the most common TEAE within 30 days following administration of study intervention.

[5] = 100 mg, within 48 hours following administration
[6] = 100 mg, within 48 hours following administration, safety population
[7] = ubrogepant 100 mg (N = 456), within 48 hours following administration, safety population
[8] = ubrogepant 100 mg (N = 456), within 30 days following administration, safety population

C[C@@H]1[C@H](c2ccccc2)C[C@H](NC(=O)c2cnc3c(c2)C[C@@]2(C3)C(=O)Nc3ncccc32)C(=O)N1CC(F)(F)F [Ubrogepant, (3′S)—N-((3S,5S,6R)-6-methyl-2-oxo-5-phenyl-1-(2,2,2-trifluoroethyl)piperidin-3-yl)-2′-oxo-1′,2′,5,7-tetrahydrospiro[cyclopenta[b]pyridine-6,3′-pyrrolo[2,3-b]pyridine]-3-carboxamide]
Absence of aura, Nonresponder (%) ([1]; 48 Hours post dose): (2.6) % | Absence of aura, OR vs placebo ([1]; 48 Hours post dose): 3.05 | Absence of aura, Responder (%) ([1]; 48 Hours post dose): (97.4) % | Absence of aura, Nonresponder (%) ([1]; 1 hour post dose): (38.3) % | Absence of aura, OR vs placebo ([1]; 1 hour post dose): 0.99 | Absence of aura, Responder (%) ([1]; 1 hour post dose): (61.7) % | Absence of aura, Nonresponder (%) ([1]; 2 hours post dose): (28.1) % | Absence of aura, OR vs placebo ([1]; 2 hours post dose): 1.13 | Absence of aura, Responder (%) ([1]; 2 hours post dose): (71.9) % | Absence of aura, Nonresponder (%) ([1]; 3 hours post dose): (23.0) % | Absence of aura, OR vs placebo ([1]; 3 hours post dose): 0.96 | Absence of aura, Responder (%) ([1]; 3 hours post dose): (77.0) % | Absence of aura, Nonresponder (%) ([1]; 4 hours post dose): (19.1) % | Absence of aura, OR vs placebo ([1]; 4 hours post dose): 1.12 | Absence of aura, Responder (%) ([1]; 4 hours post dose): (80.9) % | Absence of aura, Nonresponder (%) ([1]; 6 hours post dose): (15.3) % | Absence of aura, OR vs placebo ([1]; 6 hours post dose): 1.05 | Absence of aura, Responder (%) ([1]; 6 hours post dose): (84.7) % | Absence of aura, Nonresponder (%) ([1]; 8 hours post dose): (10.5) % | Absence of aura, OR vs placebo ([1]; 8 hours post dose): 1.10 | Absence of aura, Responder (%) ([1]; 8 hours post dose): (89.5) % | Absence of aura, Nonresponder (%) ([1]; 24 hours post dose): (5.3) % | Absence of aura, OR vs placebo ([1]; 24 hours post dose): 1.48 | Absence of aura, Responder (%) ([1]; 24 hours post dose): (94.7) % | Ability to function normally, Nonresponder (%) ([2]; 1 hour post dose): (74.4) % | Ability to function normally, Odds Ratio vs. Placebo ([2]; 1 hour post dose): 1.29 | Ability to function normally, Responder (%) ([2]; 1 hour post dose): (25.6) % | Ability to function normally, Nonresponder (%) ([2]; 2 hours post dose): (63.0) % | Ability to function normally, Odds Ratio vs. Placebo ([2]; 2 hours post dose): 1.73 | Ability to function normally, Responder (%) ([2]; 2 hours post dose): (37.0) % | Ability to function normally, Responder (%) ([2]; 2 hours post dose, listed as ubrogepant): 37.0% | Ability to function normally, Nonresponder (%) ([2]; 3 hours post dose): (51.7) % | Ability to function normally, Odds Ratio vs. Placebo ([2]; 3 hours post dose): 1.71 | Ability to function normally, Responder (%) ([2]; 3 hours post dose): (48.3) % | Ability to function normally, Nonresponder (%) ([2]; 4 hours post dose): (41.0) % | Ability to function normally, Odds Ratio vs. Placebo ([2]; 4 hours post dose): 1.97 | Ability to function normally, Responder (%) ([2]; 4 hours post dose): (59.0) % | Ability to function normally, Nonresponder (%) ([2]; 6 hours post dose): (32.7) % | Ability to function normally, Odds Ratio vs. Placebo ([2]; 6 hours post dose): 1.78 | Ability to function normally, Responder (%) ([2]; 6 hours post dose): (67.3) % | Ability to function normally, Nonresponder (%) ([2]; 8 hours post dose): (25.0) % | Ability to function normally, Odds Ratio vs. Placebo ([2]; 8 hours post dose): 1.84 | Ability to function normally, Responder (%) ([2]; 8 hours post dose): (75.0) % | Ability to function normally, Nonresponder (%) ([2]; 24 hours post dose): (11.1) % | Ability to function normally, Odds Ratio vs. Placebo ([2]; 24 hours post dose): 1.41 | Ability to function normally, Responder (%) ([2]; 24 hours post dose): (88.9) % | Ability to function normally over 24 hours, Geometric Mean Odds Ratio vs. Placebo ([2]; overall, all timepoints through 24 hours): 1.66 | Activity limitation, Odds ratio vs placebo [3]: 2.07 | Activity limitation, Responders (%) (not at all limited or a little limited) [3]: (65.4) % | Activity limitation, Responders (%) (not at all limited or a little limited) ([3]; listed as ubrogepant): 65.4% | Safety results ([4]; 100 mg in prodrome): generally consistent with the known safety profile of ubrogepant | Tolerability ([4]; 100 mg in prodrome): well-tolerated | nausea, fatigue, dizziness, and somnolence, % of participants reporting ([4]; 100 mg in prodrome): ≤ 5% | TEAE dizziness, % of participants [4, 5]: 2.4% | TEAE fatigue, % of participants [4, 5]: 2.6% | TEAE nausea, % of participants [4, 5]: 5.0% | TEAE somnolence, % of participants [4, 5]: 2.4% | Adverse event leading to discontinuation (ADO), % of participants [4, 6]: (0.0) % | Death, % of participants [4, 6]: (0.0) % | Treatment-emergent Serious adverse events (TESAE), % of participants [4, 6]: (0.0) % | Treatment-emergent adverse events (TEAE), % of participants [4, 6]: (16.9) % | Treatment-related TEAEs, % of participants [4, 6]: (13.2) % | Treatment-related TESAEs, % of participants [4, 6]: (0.0) % | TEAE nausea, % of participants ([4]; 100 mg, within 30 days following administration): 5.3% | Discontinuation during the DB treatment period due to adverse events ([4]; safety population): No participant was discontinued | TEAE Dizziness, % [4, 7]: (2.4) % | TEAE Fatigue, % [4, 7]: (2.6) % | TEAE Nausea, % [4, 7]: (5.0) % | TEAE Somnolence, % [4, 7]: (2.4) % | Adverse event leading to discontinuation (ADO), % [4, 8]: (0.0) % | Death, % [4, 8]: (0.0) % | TEAE Dizziness, % [4, 8]: (2.4) % | TEAE Fatigue, % [4, 8]: (2.6) % | TEAE Nausea, % [4, 8]: (5.3) % | TEAE Somnolence, % [4, 8]: (2.4) % | Treatment-emergent Serious adverse events (TESAE), % [4, 8]: (0.0) % | Treatment-emergent adverse events (TEAE), % [4, 8]: (19.7) % | Treatment-related TEAEs, % [4, 8]: (13.2) % | Treatment-related TESAEs, % [4, 8]: (0.0) %
